“Also recorded” adds a separate entry of the source.
Columns and labels:
iNOS [1] = test: Immunoblotting for iNOS protein in cytokine-stimulated H9c2 cardiac myoblasts; assay type: cell-based, rat; settings: H9c2
Experimental: Cell cultures. H9c2 cells purchased from American Type Culture Collection (ATCC, Rockville, Md.) are spontaneously immortalized ventricular myoblasts from the rat embryo, with preservation of several electrical and biochemical characteristics found in adult cardiomyocytes. They were cultured in DMEM medium (ATCC) supplemented with 10% heat-inactivated fetal bovine serum (FBS) in 95% air and 5% CO2 at 37° C. […] After certain time intervals, 100 μL/well culture media were collected for determination of nitrite production.
Immunoblotting. Total proteins were isolated from rat cardiac myoblasts (H9c2 cells) or embryonic stem cells in an ice-cold lysis buffer containing 10 mmol/L Tris (tris(hydroxymethyl)aminomethane) (pH 7.4), 1% sodium dodecyl sulfate (SDS) and 1× protease inhibitor (1 mmol/L sodium orthovanadate). Proteins (15 μg/lane) were separated under the reducing conditions (125 mM Tris pH 6.8, 4% SDS, 10% glycerol, 0.006% bromophenol blue, 2% β-mercaptoethanol) by electrophoresis onto 5-10% SDS-polyacrylamide gel and electro-blotted to nitrocellulose membranes (Osmonics, Westborough, Mass.). The membranes were reversibly stained with Ponceau red (Sigma) to verify equal protein loading and/or transfer. After blocking in Tris-buffered saline (0.2 M Tris and 8% NaCl) containing 5% non-fat powdered milk and 0.1% Tween 20 for 1 hour at room temperature, the membranes were incubated overnight at 4° C. with following primary antibodies to (a) iNOS (Transduction Laboratories, Lexington, Ky.; BD Biosciences); (b) NF-κB p65/rel (Santa Cruz Biotechnologies, Santa Cruz, Calif.); (c) ser^32-phosphorylated inhibitor IκBα (Santa Cruz); (d) Bad (BD Biosciences, San Jose, Calif.); (e) Bcl-xL (BD Biosciences); (f) proliferating cell nuclear antigen (PCNA; BC Biosciences); (g) ryanodine receptor (Santa Cruze Biotechnology, Inc., Santa Cruz, Calif.); (h) α-sarcomeric actinin (Sigma); (i) myocardin A (developed by immunizing rabbits with a synthetic myocardin A peptide); (j) Tie-2 (Santa Cruz); (k) manganese superoxide dismutase (Santa Cruz); and (1) β-tubulin (Sigma). The blots were incubated with horseradish peroxidase-coupled secondary antibodies, washed and developed by using a SuperSignal West Pico Chemiluminescent Substrate Kit (Pierce, Rockford, Ill.). Intensity of each immunoreactive protein band was quantified by densitometric analysis. Cytokine-stimulated RAW 264.7 cells (Transduction Laboratories, Lexington, Ky.) were used as positive controls.

iNOS [2] = test: Nitrite production (Griess reaction) in H9c2 cardiac myoblasts; assay type: cell-based, rat; settings: added to simvastatin + IL-1α 20 ng/mL
Experimental: Cell cultures. H9c2 cells purchased from American Type Culture Collection (ATCC, Rockville, Md.) are spontaneously immortalized ventricular myoblasts from the rat embryo, with preservation of several electrical and biochemical characteristics found in adult cardiomyocytes. […] After certain time intervals, 100 μL/well culture media were collected for determination of nitrite production. Assay for NO Production. The activity of iNOS was determined in the culture medium by assaying nitrites, taken as an index of NO production, using the Griess reagent (1% sulphanilic acid and 0.1% N-[1-naphtyl] ethylenediamine-HCl in 5% phosphoric acid) as reported previously (4,18,19). Equal volumes of medium and Griess reagent were mixed, and the purple products quantified spectrophotometrically at 550 nm. Nitrite concentrations were determined from a linear standard curve constructed with known concentrations of sodium nitrite (0 to 40 μmol/L nitrite). Nitrite Assays. Nitrite, a stable end-product of nitric oxide, was measured by using Griess reagent (1% sulphanilic acid and 0.1% N-[1-naphtyl] ethylenediamine-HCl in 5% phosphoric acid). Equal volumes of medium and Griess reagent were mixed, and the resulting purple product quantified by spectrophotometric assay at 550 nm. Nitrite concentrations were calculated from a linear standard curve constructed with known concentrations of sodium nitrite (0-14 μmol/L nitrite) (19).

NF-κB p65/RelA = test: Immunoblotting for p65/RelA subunit of NF-κB, total cellular or nuclear proteins of H9c2 cells; assay type: cell-based, rat; settings: simvastatin + IL-1α + L-mevalonate
[3] = system: murine embryonic stem cells; assay type: cell-based
Experimental: At day 12, the number of contracting EB outgrowths (Panel A) and extension of beating area (Panel B) were detrmined by morphometry. The results were plotted as percentages of the total EBs counted in each well and shown as the mean ±SD for each of the 3 separate experiments. *, P<0.05 vs untreated control; #, P<0.05 vs simvastatin-treated control.
The murine ESC (mESC) line CCE was obtained from American Type Culture Collection (ATCC, Rockville, Md.). Murine ESCs were cultured without feeder cells in Dulbecco's modified Eagle's medium supplemented with 10% ESC-qualified Fetal Bovine Serum (FBS) (Stem Cell Technologies, Vancouver, Va.), pyruvate (Stem Cell Technologies, stock solution diluted 1:100), 2 mM L-glutamine, nonessential amino acids (Stem Cell Technologies, stock solution diluted 1:100), 100 IU/mL penicillin, 0.1 mg/mL streptomycin, and leukemia inhibitory factor (LIF) (Stem Cell Technologies). To induce differentiation, EBs were formed from undifferentiated mESCs in hanging drops of 400 cells in 20 μL of medium without LIF. After 5 days in suspension, EBs were plated on gelatin-coated dishes and cultured in cardiomyocyte-differentiation medium (Iscove's modified Eagle's medium, supplemented with 15% FBS, 2 mM L-glutamine, 5×10^−5 M β-mercaptoethanol, nonessential aminoacids, 100 IU/mL penicillin, 0.1 mg/mL streptomycin).
Statin Treatment. […] The inhibition of endogenous cholesterol synthesis was the mechanism used for analyzing the effect of endogenous cholesterol depletion on EB differentiation. By days 8 through 12 after plating, spontaneously contracting cell clusters could be observed within the EB outgrowths. Culture media from both simvastatin-treated and untreated cells were changed each day after day 3.
Spontaneous cardiac differentiation of mouse embryonic stem cells (mESCs) was assessed in vitro as the presence of rhythmically beating […] (EB) outgrowth. […] Thereafter, EB outgrowths were counted periodically under the inverted microscope equipped with a digital video camera, to determine whether or not they contained beating foci at different time points (days 3, 5, 7, 10, 12, and 14). At approximately day 7, contracting areas began to appear. […] Concomitant with the increased number of beating EBs, the size of the beating area for simvastatin-treated EBs increased 2-fold (evaluated at day 12) compared to that of untreated control EBs, a significant augmentation (p<0.05) (FIG. 22B).

H9c2 embryonic myoblasts [4] = test: Immunoblotting for Bad, Bcl-xL and PCNA in H9c2 embryonic myoblasts with IL-1; assay type: cell-based, rat; settings: L-mevalonate added to simvastatin + IL-1
Experimental: Quantitation of protein bands was achieved by densitometry (Panels D, E and F, bottom). β-Tubulin staining of stripped blots was used as a control. […] PCNA, proliferating cell nuclear antigen; IL-1, interleukin-1-α; iNOS, inducible nitric oxide synthase; MnSOD, manganese superoxide dismutase.
(§1) The rat embryonic myogenic cell line H9c2 was commercially obtained from ATCC and maintained in Dulbecco's modified Eagle's medium (GIBCO) supplemented with 10% FBS at 37° C. in 95% air and 5% CO2.
Immunoblotting. Total proteins were isolated from rat cardiac myoblasts (H9c2 cells) or embryonic stem cells in an ice-cold lysis buffer containing 10 mmol/L Tris (tris(hydroxymethyl)aminomethane) (pH 7.4), 1% sodium dodecyl sulfate (SDS) and 1× protease inhibitor (1 mmol/L sodium orthovanadate). Proteins (15 μg/lane) were separated under the reducing conditions (125 mM Tris pH 6.8, 4% SDS, 10% glycerol, 0.006% bromophenol blue, 2% β-mercaptoethanol) by electrophoresis onto 5-10% SDS-polyacrylamide gel and electro-blotted to nitrocellulose membranes (Osmonics, Westborough, Mass.). The membranes were reversibly stained with Ponceau red (Sigma) to verify equal protein loading and/or transfer. […] Intensity of each immunoreactive protein band was quantified by densitometric analysis. […]

H9c2 embryonic myoblasts [5] = test: Apoptosis assay (acridine orange and ethidium bromide) in H9c2 embryonic myoblasts; assay type: cell-based, rat; settings: mevalonate 10^−4 mol/l with IL-1 + simvastatin
Experimental: The cells were exposed with IL-1αSimvastatin for 24 hours and then stained with two fluorochromes: acridine orange and ethidium bromide. Living (green fluorescence) and apoptotic (red fluorescence) cells were identified and counted with an Olympus fluorescence microscope connected to a computer imaging station.
as §1
Assays for Apoptosis. Analysis of apoptotic cells was performed by fluorescent microscopy with fluorochromes acridine orange and ethidium bromide (Sigma), as described previously (19). Apoptotic cells were discernible by their condensed, fragmented nuclei stained with both fluorochromes and were counted under a fluorescence microscope (Olympus, Center Valley, Pa.) connected to a computer imaging analysis station.

iNOS [6] = settings: cited from earlier work
[7] = injected subcutaneously over the calvaria of mice; cited from earlier work
[8] = orally administered to rats; cited from earlier work
Rho kinase = settings: cited from earlier work
iNOS [9] = settings: lovastatin pretreatment; cited from earlier work
NF-κB = settings: cited from earlier work

In the case of `CC(O)(CCO)CC(=O)O` [L-mevalonate], the “effect on simvastatin inhibition of cytokine-induced iNOS protein expression” value (iNOS [1]; added to simvastatin + IL-1α or TNF-α) is reported as “reversibly blocked; also recorded: blocks the simvastatin inhibitory effect; also recorded: diminished the inhibitory effect of simvastatin”, the “cytokine-induced iNOS protein expression in the absence of simvastatin” value (iNOS [1]; cytokine-stimulated, no simvastatin) is reported as “no or little effect on cytokine-induced iNOS expression” and the “effect on nitrite production in cells treated with simvastatin plus IL-1α” value (iNOS [2]) is reported as “significantly increased the nitrite concentrations”. The “nuclear p65/rel protein levels in statin-treated, cytokine-stimulated cells” value (NF-κB p65/RelA) was “could elevate the nuclear p65/rel protein levels”, the “cytotoxicity in EBs” value [3] was “without any cytotoxicity” and the “contracting EBs in the absence of simvastatin” value ([3]; L-mevalonate alone) was “no or little effect on contracting EBs”. The “effect on the simvastatin effect on Bcl-xL” value (H9c2 embryonic myoblasts [4]) was “reversed the statin effect” and the “effect on the simvastatin cytoprotective effect” value (H9c2 embryonic myoblasts [5]) was “diminished”.
In the case of `CC[C@H](C)C(=O)O[C@H]1C[C@@H](C)C=C2C=C[C@H](C)[C@H](CC[C@@H]3C[C@@H](O)CC(=O)O3)[C@H]21` [lovastatin], the “iNOS and cytokine expression” value (iNOS [6]; rat macrophages, astrocytes, and microglia) is listed as “inhibits iNOS and cytokine expression”, the “LPS-induced iNOS expression” value (iNOS [6]; rat primary astrocytes) is listed as “blocks LPS-induced iNOS expression” and the bone formation [7] is listed as “increase bone formation”. For the same molecule, the cancellous bone volume [8] was “increased cancellous bone volume”, the Rho kinase activity (Rho kinase) was “inhibit the Rho kinase activity” and the “IL-1beta induction of iNOS” value (iNOS [9]) was “superinduction of iNOS”.
In the case of `CC[C@H](C)C(=O)O[C@H]1CCC=C2C=C[C@H](C)[C@H](CC[C@@H]3C[C@@H](O)CC(=O)O3)[C@H]21` [mevastatin], the “NF-κB activity and NF-κB-dependent VCAM and E-selectin expression” value (NF-κB) is given as “inactivate NF-κB and reduce NF-κB-dependent expression of the endothelial adhesion proteins”.
